# Values joined by “and” are separate entries in the source; they are usually repeats but may differ in a detail not shown here. Identical values can stand only once.
# Legend:
# [1] = Qualitative tissue distribution (biodistribution) study after IP dosing; format: in vivo, Swiss albino mice; details: IP 125 mg/kg, 7 min after dosing
# Protocol: Five µL of the IS ([…]) and 20 µL of 50, 40, 30, 20, 10, 8, and 4 µg/mL PsA standard solutions were combined with 15 µL freshly extracted blank mouse plasma. 300 µL of a 70% EtOAc/30% isopropanol mixture was added and vortexed for 30 s. Following centrifugation at 15,000× g for 10 min, the supernatant was transferred to a 2 mL Eppendorf tube for nitrogen evaporation. The residues were reconstituted in 25 µL HPLC-grade MeOH before being subjected to 30 s sonication followed by centrifugation at 15,000× g for 10 min. Afterwards, the entire sample was immediately injected for RP-HPLC analysis. The mouse plasma samples used in the PK study were subjected to the same extraction method, minus the addition of the PsA standard solutions. After weighing, each mouse organ was reconstituted in 500 µL PBS, then homogenized using the MISONIX Sonicator (Division of QSonica LLC, Newtown, CT, USA). Samples were centrifuged at 15,000× g for 10 min, and the supernatant was collected and transferred to a 2 mL Eppendorf. About 5 µL of IS (25 µL/mL) and 300 µL of a 70% EtOAc/30% isopropanol mixture were added to 100 µL of supernatant and vortexed for 30 s. Following centrifugation at 15,000× g for 10 min, the supernatant was transferred to a 2 mL Eppendorf tube and evaporated under N2. The remains were reconstituted in 40 µL HPLC-grade methanol before being subjected to 30 s sonication followed by centrifugation at 15,000× g for 10 min.
# For the biodistribution study, four healthy male and two healthy female Swiss albino mice were randomly selected and placed in 2 groups (n = 3/group). The mice received free access to drinking water and pelleted regular rodent chow (Cat# 7012, Envigo/Teklad, Madison, WI, USA) until the day before experimentation, after which they were fasted for 8 h and allowed only free access to drinking water. One group was IP administered 125 mg/kg PsA formulated in PBS-DMSO (925:75) + 0.2% Tween 80 at a body weight-adjusted volume not exceeding 300 µL. […] Collected samples were immediately extracted using the described method above and analyzed using HPLC.
# [2] = tested on: mCRPC CWR-R1ca-Luc cells; assay: mCRPC recurrence prevention study after neoadjuvant DTX and ENZ and primary tumor excision; format: in vivo, athymic male nude mice; details: 60 days
# Protocol: For the recurrence prevention study, nineteen 7–8-week-old athymic male nude mice (Strain Foxn^nu-Foxn^1+) were xenografted with 2 × 10^6 the mCRPC CWR-R1ca-Luc cells at the suprascapular region in 100 µL 1:1 serum-free Dulbecco’s Modified Eagle Medium (DMEM) medium-Matrigel. Mice were fed on an HFD (11.4% total fat, Cat# 7004, Envigo/Teklad, Madison, WI, USA) for 7 days before the tumor cells xenografting. When the tumors reached 100 mm^3, mice were subjected to weekly IV injections of 10 mg/kg docetaxel (DTX) (Combi-Blocks, San Diego, CA, USA) dissolved in Tween 80 (20 mg/mL) for four consecutive weeks, followed by daily IP injections of 5 mg/kg ENZ (Combi-Blocks, San Diego, CA, USA) in sterile PBS for three weeks. Following these neoadjuvant regimens, mice were randomly selected and placed into three groups. Groups 1 (n = 7) received daily oral doses of 20 mg/kg PsA (prepared in sterile PBS-DMSO 925:75). Group 2 (n = 5) received daily oral PsA 10 mg/kg. Group 3 (n = 7) received daily oral doses of PsA-free vehicle control. Treatments continued for 60 days. Isoflurane-anesthetized mice were subjected to weekly tumor monitoring using PerkinElmer IVIS Lumina Series III (Waltham, MA, USA) 30 min after an IP injection of (+)-luciferin (75 mg/kg, IP, PerkinElmer, Waltham, MA, USA) for efficiency assessment of excision surgery, tumor progression, and tumor metastasis. Following treatment regimen completion, mice were anesthetized using isoflurane (USP-vaporizer method, Matrix VIP-3000), exposure of animals in an anesthesia chamber at 3% isoflurane vaporization rate. Exposure time 2 min. Mice were then euthanized by cervical dislocation according to the American Veterinary Medical Association (AVMA) Guidelines for the Euthanasia of Animals: 2020 Edition, and tumors were collected. Tumors were snap frozen using Isopentane (J.T. Baker, Radnor, PA, USA) in liquid nitrogen before storage at −80 °C.
compound,measurement,setting,value
"CC/C=C\[C@H](O)[C@H](O)C1=C(C)C(=O)[C@]2(O1)C(=O)N[C@@](OC)(C(=O)c1ccccc1)[C@@H]2O [PsA, pseurotin A]",PsA HPLC peak in brain tissue (BBB crossing),[1],did not display PsA peak
same,"PsA HPLC peak in liver, kidney, heart and spleen tissue",[1],prominent PsA peak
same,PsA HPLC peak in plasma,[1],prominent PsA peak
same,"Distant recurrence Backbone, affected mice per group","[2]; PsA 10 mg/kg daily oral, n = 5",1/5
same,"Distant recurrence Brain, affected mice per group","[2]; PsA 10 mg/kg daily oral, n = 5",2/5
same,"Distant recurrence Femur, affected mice per group","[2]; PsA 10 mg/kg daily oral, n = 5",1/5
same,"Distant recurrence Heart, affected mice per group","[2]; PsA 10 mg/kg daily oral, n = 5",1/5
same,"Distant recurrence Kidney, affected mice per group","[2]; PsA 10 mg/kg daily oral, n = 5",0/5
same,"Distant recurrence Liver, affected mice per group","[2]; PsA 10 mg/kg daily oral, n = 5",1/5
same,"Distant recurrence Lung, affected mice per group","[2]; PsA 10 mg/kg daily oral, n = 5",1/5
same,"Distant recurrence Spleen, affected mice per group","[2]; PsA 10 mg/kg daily oral, n = 5",1/5
same,"Locoregional recurrence, affected mice per group","[2]; PsA 10 mg/kg daily oral, n = 5",one and 1/5
same,"Distant recurrence Backbone, affected mice per group","[2]; PsA 20 mg/kg daily oral, n = 7",0/7
same,"Distant recurrence Brain, affected mice per group","[2]; PsA 20 mg/kg daily oral, n = 7",2/7
same,"Distant recurrence Femur, affected mice per group","[2]; PsA 20 mg/kg daily oral, n = 7",1/7
same,"Distant recurrence Heart, affected mice per group","[2]; PsA 20 mg/kg daily oral, n = 7",0/7
same,"Distant recurrence Kidney, affected mice per group","[2]; PsA 20 mg/kg daily oral, n = 7",0/7
same,"Distant recurrence Liver, affected mice per group","[2]; PsA 20 mg/kg daily oral, n = 7",1/7
same,"Distant recurrence Lung, affected mice per group","[2]; PsA 20 mg/kg daily oral, n = 7",0/7
same,"Distant recurrence Spleen, affected mice per group","[2]; PsA 20 mg/kg daily oral, n = 7",0/7
same,"Locoregional recurrence, affected mice per group","[2]; PsA 20 mg/kg daily oral, n = 7",one and 1/7

# From publication PMC12525728, “Safety, Pharmacokinetics, Translational and Molecular Mechanistic Insights on the Prostate Cancer Recurrence Suppressor Pseurotin A” (Molecules, 2025)
